ChEMBL document CHEMBL1150951, “New mycalolides from the marine sponge Mycale magellanica and their interconversion” (J Nat Prod, 1998)
In brackets after ≈: the same amount, converted by molar mass.

What follows are molecules tested on L1210 (assay: Cytotoxicity against mouse L1210 cells).
Assay type: functional, cell-based
Work on `CO[C@H]1C/C=C/c2nc(co2)-c2nc(co2)-c2nc(co2)[C@@H](OC)[C@@H](C)C(=O)/C=C/C[C@H](O)CC(=O)O[C@@H](C[C@H](OC)[C@@H](C)CCC(O)[C@@H](C)[C@H](OC(C)=O)[C@H](C)/C=C/N(C)C=O)[C@@H]1C` (stereo partly drawn) [30-HYDROXYMYCALOLIDE A] yielded an IC50 of 0.019 mg/L (≈ 0.0209 µM).
`CO[C@H]1C/C=C/c2nc(co2)-c2nc(co2)-c2nc(co2)[C@@H](OC)[C@@H](C)C(=O)/C=C/C[C@H](O)CC(=O)O[C@@H](C[C@H](OC)[C@@H](C)CCC(=O)[C@@H](C)[C@H](O)[C@H](C)/C=C/N(C)C=O)[C@@H]1C` [32-HYDROXYMYCALOLIDE A] showed an IC50 of 0.013 mg/L (≈ 0.015 µM).
`COC(CO)C(=O)O[C@H](CC[C@H](C)[C@H](C[C@@H]1OC(=O)C[C@@H](O)C/C=C/C(=O)[C@H](C)[C@H](OC)c2coc(n2)-c2coc(n2)-c2coc(n2)/C=C/C[C@H](OC)[C@H]1C)OC)[C@H](C)[C@H](OC(C)=O)[C@H](C)/C=C/N(C)C=O` (stereo partly drawn) [38-HYDROXYMYCALOLIDE B] was tested, and the IC50 was 0.015 mg/L (≈ 0.0148 µM).
